Test results: US5659055A, “Cytoprotective fatty moiety compounds” (Virginia Commonwealth University, priority 1995, dated 1997)

Key:
[1] = test system: Human SF-PLA2 Induced Mouse Paw Edema; assay: Human SF-PLA2 induced mouse paw edema, oral administration; assay type: in vivo
Procedure: The mouse paw edema is inhibited in dose related fashion by increasing concentrations of RISE-1 given orally 1.0 hours before induction of the edema by SF-PLA2.

[2] = Autooxidation of phosphatidylethanolamine
[3] = Oxidation of arachidonic acid (decreased turbidity and hydroperoxide formation)

Row | Structure (SMILES) | oral antiinflammatory activity in this model of edema [1] | effect on the autooxidation of phosphatidylethanolamine [2] | effect on the autooxidation of arachidonic acid [3]
1 | CCCCCCC(C/C=C\CCCCCCCC(=O)O)OC(=O)CCCCCCCCC(=O)O (stereo not drawn) [RISE-1, Ricinoleic Acid--Sebacyl Ester] | has oral antiinflammatory activity | no effect | no effect
2 | CCCCC/C=C\C/C=C\CCCCCCCC(=O)OC(C/C=C\CCCCCCCC(=O)O)CCCCCC (stereo not drawn) [RALA, Ricinoleic acid--Linoleic Acid Ester] |  | effective inhibitors | 
3 | CCCCCCCC/C=C\CCCCCCCCOC(=O)CCCCCCC/C=C\CC(CCCCCC)OC(=O)/C=C/C(=O)O (stereo not drawn) [OA1RAFA, Oleyl Alcohol-Ricinoleate-Fumaric Acid Diester] |  | effective inhibitors | 
4 | CCCCCCCC/C=C\CCCCCCCC(=O)OC(C/C=C\CCCCCCCC(=O)O)CCCCCC (stereo not drawn) [RAOA, Ricinoleic Acid--Oleic Acid Ester] |  | effective inhibitors | 
